Laboratory results as given in patent US8129532B2, “Amino(oligo)thiophene dyes, preparation thereof, and optical methods of use” (The University of Connecticut, priority 2007, dated 2012).

Columns and labels:
[1] = One-photon fluorescence relative signal change per 100 mV; conditions: excitation / long-pass emission (nm) given
Description: The left-most data columns of Table 1 are the absorption and emission maxima for one photon fluorescence in soybean multi-lamellar lipid vesicles used to mimic the membrane environment. The column indicating relative signal change for one-photon fluorescence also lists the excitation light source used and the lower bounds of the long-pass emission detected.

[2] = system: layer V pyramidal neurons; assay: Voltage-sensitive dye imaging of action potentials in intracellularly stained pyramidal neurons in brain slices; assay type: cell-based, Sprague Dawley rats; conditions: for dF/F at 658 nm / dF/F at 633 nm: backpropagating AP, %; for dF/F at 658 nm / voltage sensitivity compared with red dye / dF/F at 633 nm: basal dendrites 80-150 μm from soma; for dF/F at 658 nm / S/N ratio at 658 nm: laser spot 658 nm; for dF/F at 633 nm / S/N ratio at 633 nm: laser spot 633 nm
Description: Sprague Dawley rats (P21-42) were anesthetized with isoflurane, decapitated, and the brains were removed with the head immersed in ice-cold, artificial cerebrospinal fluid (ACSF), according to an animal protocol approved by the Center for Laboratory Animal Care, University of Connecticut. Brain slices (300 μm) were cut from frontal lobes in the coronal plane. ACSF contained (in mM) 125 NaCl, 26 NaHCO3, 10 glucose, 2.3 KCl, 1.26 KH2PO4, 2 CaCl2 and 1 MgSO4, pH 7.4. Whole-cell recordings were made from visually identified layer V pyramidal neurons on the medial part of the slice. Intracellular solution contained (in mM) 135 K-gluconate, 2 MgCl2, 3 Na2-ATP, 10 Na2-phosphocreatine, 0.3 Na2-GTP and 10 Hepes (pH 7.3, adjusted with KOH). Electrical signals were amplified with Multiclamp 700A and digitized with two input boards: (1) Digidata Series 1322A (Axon Instruments) at 5 kHz, and (2) Neuroplex (RedShirtImaging) at 2.7 kHz sampling rate. Only cells with a membrane potential more hyperpolarized than −50 mV, and action potential amplitudes exceeding 80 mV (measured from the base line) were included in this study. All experiments were performed on layer 5 cortical pyramidal cells at 34° C.
Blue dyes were stored in ethanol stock solution at −20° C. On the day of the recording blue dyes were dissolved in standard K-gluconate based intracellular solution. A loading pipette was filled with two varieties of the same intracellular solution; one with and one without dye. Dye-free solution was occupying the very tip of the pipette, while the back of the pipette lumen was microloaded with dye-rich solution. The purpose of dye-free solution in the tip of the patch pipette was to prevent dye-leak during the maneuver through brain slice tissue. VSD styryl dyes are lipophilic and bind indiscriminately and irreversibly to all membranes around the neuron of interest. Even a small amount of dye that leaks out of the pipette during the formation of the gigaohm seal, can generate strong fluorescent background. Fluorescent light emanating from surrounding tissue has a devastating effect on dendritic optical signals. Elimination of the background fluorescence is critical for dendritic voltage imaging. How much dye-free solution one should put in the tip depends on time period between the submersion of the patch pipette into the recording chamber and formation of the gigaohm seal. The faster one can perform this maneuver the less dye-free solution she needs to achieve optimal staining.
Blue VSD were injected at room temperature for 25-60 minutes. The filling pipette was carefully pulled out (outside-out patch) and brain slices were left to incubate for 20-120 minutes at room temperature. Just before optical recordings the cells were re-patched with dye-free pipette at the physiological temperature (34° C.).
Voltage-sensitive dye imaging was performed on a Zeiss Axioskope 2FS microscope equipped with NeuroCCD camera (RedShirtImaging). We used Zeiss 40× objective IR-Achroplan 0.80 W. The size of the square visual field captured by NeuroCCD camera was 384×384 um. In the place of the arc lamp (normally used for epi-illumination), we inserted a 200 μm fiber optic guide with a collimator. Laser beam was focused on the other side of the fiber optic guide using a microscope objective-like lens. This arrangement produced a motionless spot of laser light (˜25 μm in diameter) at the object plane. An illuminated section of the brain slice, projected onto the NeuroCCD camera, covered approximately 25 pixels when used with 40× objective lens. At this magnification, one pixel sampled a 4.8×4.8 square in the object plane. A region of interest (ROI) was brought into the laser spot using X-Y microscope platform. The laser beam was interrupted by an electro-programmable shutter (Uniblitz®). Attention was made to limit the exposure time during the recording and positioning of the neuron.

Compound | 1PF Change (ΔF/F-100 mv) [1] | dF/F at 658 nm [2] | voltage sensitivity compared with red dye [2] | S/N ratio at 658 nm [2] | polarity of optical signal at 532 nm excitation [2] | polarity of optical signal at 658 nm excitation [2] | dF/F at 633 nm [2] | S/N ratio at 633 nm [2]
CCN(CC)c1ccc(-c2ccc(/C=C/c3cc[n+](CCC[N+](CC)(CC)CC)cc3)s2)s1 [PY-1261, Di-2-BTEPPTEA] | 5.0E−002; 625/>715 ΔF/F-100 mv | 7.91 ± 1.57% | better sensitivity than red dye JPW-3028 | 5.38 ± 1.86 |  |  |  | 
CCCCN(CCCC)c1ccc(-c2ccc(/C=C/c3cc[n+](CCC[N+](CC)(CC)CC)cc3)s2)s1 [PY-1266, Di-4-BTEPPTEA] | 1.0E−001; 635/>715 ΔF/F-100 mv | 8.32 ± 2.13% | better sensitivity than red dye JPW-3028 | 5.22 ± 1.32 | positive signals | positive signals | 10.41 ± 2.80% | 4.77 ± 1.35
CCCN(CCC)c1ccc(-c2ccc(/C=C/c3cc[n+](CCC[N+](CC)(CC)CC)cc3)s2)s1 [PY-1286, Di-3-BTEPPTEA] | 1.8E−001; 640/>715 ΔF/F-100 mv | 7.64 ± 2.20% | better sensitivity than red dye JPW-3028 | 5.13±2.31 |  |  | 13.67 ± 2.89% | 4.53 ± 0.95
